From PMC9963438, “Emerging Effects of Resveratrol Derivatives in Cells Involved in Oral Wound Healing: A Preliminary Study” (International Journal of Molecular Sciences, 2023)

Assays:
HUVECs [1] = assay: LDH release assay on HUVECs; type: cell-based, human; settings: 24 h
Protocol: (§1) Lactate Dehydrogenase (LDH) activity in HUVECs, HGFs, and HOBs was measured with a cytotoxicity detection kit LDH (Roche, Basilea, Swiss). Firstly, 5000 cells/well (HUVECs, HGFs and HOBs) were seeded in 96-well plates and treated with 1d and 1h (5, 10, 20 µM). After 24 h, the assay was performed according to manufacturer instructions. LDH release was calculated as a percentage with respect to the control (CTRL).

HOBs [2] = assay: LDH release assay on HOBs; type: cell-based, human; settings: 24 h
Protocol: as §1

HUVECs [3] = assay: MTT viability/proliferation on HUVECs; type: cell-based, human
Protocol: (§2) To measure HUVECs, HGFs, and HOBs metabolic activity as an indicator of cell viability and proliferation, an MTT assay (Sigma Aldrich, Milan, Italy) was performed. In brief, 8000 cells/well (HUVECs, HGFs and HOBs) were seeded in 96-well plates and after 24 h cells were treated with increasing concentrations of 1d and 1h for 48 h and 72 h. Then, the medium was replaced by a fresh one supplemented with […] MTT and probed for 4 h at 37 °C. The medium containing MTT was discarded and replaced by an equal volume of DMSO to dissolve formazan crystals. The absorbance of the solution was read at a 540 nm wavelength by a microplate reader (Multiskan GO, Thermo Scientific, MA, USA). Values obtained without cells were considered as background. Viability and proliferation were normalized to control cells treated with DMSO 0.1%.

HGFs [4] = assay: MTT viability/proliferation on HGFs; type: cell-based, human; settings: vs CTRL and RSV 10 µM
Protocol: For the initial screening, HGFs were seeded at a density of 8000 cells/well into a 96-well culture plate and cultured for 24 h. […] The DMSO final concentration was established at 0.1% in all tested samples.
as §2

HGFs [5] = assay: Toluidine blue staining, morphology and confluence of HGFs; type: cell-based, human; settings: for HGFs confluence: compared to controls
Protocol: The influence of 1d and 1h was evaluated on cells density and morphology by toluidine-blue staining. A total of 2 × 10^4 cells/well were cultured in 24-well plates and were incubated at 37 °C and 5% CO2 with tested compounds at 5 µM. After 48 and 72 h, adherent cells were fixed with 70% cold ethanol and stained with 1% toluidine blue and 1% borax (Sigma Aldrich, St. Louis, MO, USA). Cells were then observed by an inverted microscope connected with a camera at 40×, 100×, and 200× magnifications (Leica, Wild Heer-brugg, Wetzlar, Germany).

HOBs [6] = assay: Alizarin red staining and calcium deposition (CPC) in HOBs; type: cell-based, human; settings: 5 µM, 14 days
Protocol: To evaluate mineralization qualitatively, Alizarin red staining was performed. 5 × 10^4/well HOBs were seeded and treated with 1d and 1h. After 14 days of culture, HOBs were rinsed three times with PBS and fixed with a glutaraldehyde solution (2.5%) for 2 h. An Alizarin staining solution (Sigma-Aldrich) was then added for 1h at room temperature and the excess dye was removed using deionized water. The presence of calcium deposition was qualitatively evaluated by observing the intensity of the red color. Images were taken by a stereomicroscope connected with a camera at a magnification of 12× (Leica, Wetzlar, Germany). Furthermore, to quantify calcium deposition, Cetylpyridinium Chloride (CPC) was used. Upon a washing with deionized water, cells were treated with 1 mL of 10% CPC solution (Sigma-Aldrich) for 1 h to chelate calcium ions. After incubation, the absorbance was read at 540 nm by a microplate reader (Synergy H1 Hybrid BioTek Instruments) and normalized with the cell number.

eNOS mRNA in HUVECs = assay: RT-qPCR of eNOS in HUVECs; type: cell-based, human
Protocol: (§3) Total RNA was isolated using Trifast reagent (EuroClone) according to the manufacturer instructions from 3 × 10^5 cells/well treated with increasing concentrations of 1d and 1h for 48 h and 72 h. Complementary DNA (cDNA) was obtained using GoTaq® 2 Step RT-qPCR Kit (Promega, Madison, WI, USA) in accordance with the manufacturer’s instructions. RT-qPCR was carried out using SYBR Green (Promega) on the Quant Studio 7 Pro Real-Time PCR System (ThermoFisher, Waltham, MA, USA). The results were normalized to glyceraldehyde 3-phoshate dehydrogenase (GAPDH) for HUVECs and HGFs and to β-actin (βACT) for HOBs using the 2^−ΔΔCt method.

COL1 mRNA in HGFs = assay: RT-qPCR of COL1 in HGFs; type: cell-based, human
Protocol: as §3

ALP mRNA in HOBs = assay: RT-qPCR of ALP in HOBs; type: cell-based, human; settings: all concentrations (5, 10, 20 µM), compared to CTRL; not significant
Protocol: as §3

OCN mRNA in HOBs = assay: RT-qPCR of OCN in HOBs; type: cell-based, human
Protocol: as §3

[7] = LogP determination (n-octanol/phosphate buffer pH 7.4); type: physicochemical; settings: n-octanol/aqueous phosphate buffer, pH 7.4, n-octanol / phosphate buffer pH 7.4; mean of three experiments (SD)
Protocol: Both n-octanol and aqueous phosphate buffer (pH 7.4) solutions were saturated of each other by shaking. A total of 1 mL of n-octanol was added to an equal volume of an aqueous phosphate buffer (pH 7.4). A total of 5 mg of each compound was added and mixed by repeated inversion up to 200 times for 5 min and then allowed to stand for 30 min for the full separation of the two phases. Next, the respective phases were filtered and analyzed by HPLC [50] and the logarithm of the ratio of the concentrations of the unionized solute in the solvents (LogP) were determined.

[8] = 10 and 20 µM, differences not significant
[9] = 5 µM, 72 h, vs CTRL and RSV 10 µM
[10] = 10 µM, 48 h, vs CTRL and RSV 10 µM
[11] = 10 µM, 72 h, vs CTRL and RSV 10 µM
[12] = 20 µM, 72 h, vs CTRL and RSV 10 µM
[13] = 72 h, 1d and 1h 5 µM, RSV 10 µM
[14] = all concentrations (5, 10, 20 µM), 48 and 72 h

SMILES	LDH release (HUVECs [1]; 5 µM)	LDH release (HUVECs [1]; [8])	LDH release (HOBs [2]; 5 µM)	LDH release (HOBs [2]; [8])	HUVECs viability (MTT) (HUVECs [3]; [9])	HUVECs viability (MTT) (HUVECs [3]; [10])	HUVECs viability (MTT) (HUVECs [3]; [11])	HUVECs viability (MTT) (HUVECs [3]; [12])	HGFs proliferation rate (MTT) (HGFs [4]; 5 µM, 48 h)	HGFs proliferation rate (MTT) (HGFs [4]; 5 µM, 72 h)	HGFs morphology (HGFs [5]; 5 µM, 48 h)	HGFs confluence (HGFs [5]; 5 µM, 72 h)	HGFs morphology (HGFs [5]; [13])	matrix mineralization by ARS (qualitative) (HOBs [6])	eNOS mRNA expression (eNOS mRNA in HUVECs; 5 µM, 48 h, vs CTRL and RSV)	eNOS mRNA expression (eNOS mRNA in HUVECs; 5, 10, 20 µM, 72 h)	COL1 mRNA level (COL1 mRNA in HGFs; [14])	ALP mRNA level (ALP mRNA in HOBs)	OCN mRNA expression (OCN mRNA in HOBs; 5 µM, 48 h)	OCN mRNA expression (OCN mRNA in HOBs; 10 and 20 µM, 48 h)	also measured
Cc1ccc(S(=O)(=O)Nc2ccc(/C=C/c3ccccc3)cc2)cc1 [1d, 4-Methyl-N-{4-[(E)-2-phenylvinyl]phenyl}benzenesulfonamide]	lowest LDH values	slightly increased the LDH	lowest LDH values	slightly increased the LDH	significantly promoted cell viability with respect to RSV	slightly increased for 10 µM only with respect to RSV	viability was not enhanced	viability was not enhanced	significant increase in proliferation rate	significantly promoted cell proliferation	short and broad and assumed a cuboid to polygonal aspect	nearly confluent	mainly appeared as long spindles	higher mineralization potential	increased after 48 h exposure to all 1d concentrations with statistical significance just for 5 µM	slightly promoted the enhancement of eNOS expression	increase in COL1 mRNA level	slight increase in the ALP mRNA level	increased after 48 h exposure to all 1d concentrations with statistical significance just for 5 µM	increased	HUVECs viability (MTT) (HUVECs [3]; 5 µM, 48 h, vs CTRL (0.1% DMSO) and RSV 10 µM): slight increase in metabolic activity at 5 µM compared to the CTRL and a significant increase compared to RSV; HGFs proliferation rate (MTT) (HGFs [4]; 10 µM, 48 h): slight increment of cell growth compared to RSV, but not in respect to the CTRL; HGFs proliferation rate (MTT) (HGFs [4]; 20 µM, 72 h): proliferative rate was lower; calcium deposition (quantitative measurement with CPC) (HOBs [6]; vs control, RSV and 1h): significantly stimulated the calcium deposition; eNOS mRNA expression (eNOS mRNA in HUVECs; 10 and 20 µM, 48 h, not statistically significant): increased; COL1 mRNA level (COL1 mRNA in HGFs; 5 µM, 48 h, compared to CTRL and RSV): significantly highest result; OCN mRNA expression (OCN mRNA in HOBs; 5 µM, 72 h, compared to CTRL): highest significant peak; OCN mRNA expression (OCN mRNA in HOBs; 10, 20 µM, 72 h): slightly promoted the enhancement of OCN expression; logP [7]: < 3
CCS(=O)(=O)Nc1ccc(/C=C/c2ccccc2)cc1 [1h, N-{4-[(E)-2-Phenylvinyl]phenyl}ethanesulfonamide]	lowest LDH values	slightly increased the LDH	lowest LDH values	slightly increased the LDH	slightly favored cell growth with respect to RSV	viability was not induced	viability significantly decreased	viability significantly decreased	cell proliferation was significantly higher	cell proliferation was significantly higher	short and broad and assumed a cuboid to polygonal aspect	nearly confluent	mainly appeared as long spindles	stimulated the formation of mineralized nodules	increased eNOS expression at 5 µM	slightly promoted	increase in COL1 mRNA level	slight increase in the ALP mRNA level	significantly stimulated OCN levels with respect to the CTRL	slightly promoted	HUVECs viability (MTT) (HUVECs [3]; 20 µM, 48 h, vs CTRL and RSV 10 µM): viability was not induced; OCN mRNA expression (OCN mRNA in HOBs; 72 h, in respect to CTRL, levels comparable to RSV): slightly increased OCN expression; logP [7]: < 3
